System: mosses and lichens
Assay: Anti-moss and anti-lichen effect of glycerol-based compositions, overall observation on mosses and lichens
Type: in vivo
Source text: An anti-moss and/or anti-lichen composition is first prepared by solubilizing the required amount of glycerol in water at room temperature, in an appropriate vessel, to give a solution containing 99%, 65% or 20% by weight of glycerol.
The anti-moss and/or anti-lichen composition is maintained at this same temperature in a vessel fitted with a nozzle to enable the product to be sprayed onto a vertical or horizontal surface.
A sufficient amount of anti-moss and/or anti-lichen composition containing 99%, 65% or 20% by weight of glycerol, with or without gluconic acid, is applied by the process of the invention to 3 different surfaces covered with crustaceous lichens, gelatinous lichens and mosses.
For the series of 3 treatments, visual observations were made periodically after treatment with the glycerol compositions described, and then at regular intervals for 3 weeks.

With `OCC(O)CO` [Pure glycerol, glycerol] the “anti-moss and/or anti-lichen activity on dilution” value (glycerol diluted to 20%) was “without losing its anti-moss and/or anti-lichen activity” and the “efficacy for removing mosses and/or lichens” value (pure glycerol) was “effective”.

Source: patent publication US20080085833A1, “Use Of Glycerol As An Anti-Moss And/Or Anti-Lichen Agent” (priority 2004, published 2008)
